In PubChem BioAssay (NCI):
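Where inhibition never reached the appropriate level, the endpoint shown equals the highest concentration tested. Otherwise, values were interpolated linearly from a five-concentration, 48-hour dose response in 96-well plates. Definition used: TGI = concentration required for complete inhibition of growth.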

Assays:
Test in all cases: NCI tumour cell line growth inhibition, 48 h
OVCAR-4 ovarian = tested on: OVCAR-4 ovarian
HOP-92 NSCLC = tested on: HOP-92 NSCLC
NCI-H522 lung = tested on: NCI-H522 lung
NCI-H460 lung = tested on: NCI-H460 lung
HL-60(TB) leukemia = tested on: HL-60(TB) leukemia
HCC-2998 colon = tested on: HCC-2998 colon
KM12 colon = tested on: KM12 colon
SN12K1 renal = tested on: SN12K1 renal
HT29 colon = tested on: HT29 colon
SK-MEL-5 melanoma = tested on: SK-MEL-5 melanoma
M19-MEL melanoma = tested on: M19-MEL melanoma
SNB-19 CNS = tested on: SNB-19 CNS
UACC-62 melanoma = tested on: UACC-62 melanoma
HOP-18 NSCLC = tested on: HOP-18 NSCLC
IGROV1 ovarian = tested on: IGROV1 ovarian
SF-539 CNS = tested on: SF-539 CNS
COLO 205 colon = tested on: COLO 205 colon
SK-MEL-28 melanoma = tested on: SK-MEL-28 melanoma
RPMI-8226 leukemia = tested on: RPMI-8226 leukemia
P388 leukemia = tested on: P388 leukemia
DLD-1 colon = tested on: DLD-1 colon
SW-620 colon = tested on: SW-620 colon
K-562 leukemia = tested on: K-562 leukemia
MOLT-4 leukemia = tested on: MOLT-4 leukemia
HCT-116 colon = tested on: HCT-116 colon
SN12C renal = tested on: SN12C renal
NCI/ADR-RES ovarian = tested on: NCI/ADR-RES ovarian
OVCAR-8 ovarian = tested on: OVCAR-8 ovarian
HOP-62 NSCLC = tested on: HOP-62 NSCLC
DMS 114 small cell lung = tested on: DMS 114 small cell lung
UACC-257 melanoma = tested on: UACC-257 melanoma
OVCAR-3 ovarian = tested on: OVCAR-3 ovarian
HCT-15 colon = tested on: HCT-15 colon
NCI-H23 lung = tested on: NCI-H23 lung
MCF7 breast = tested on: MCF7 breast
SF-268 CNS = tested on: SF-268 CNS
LOX IMVI melanoma = tested on: LOX IMVI melanoma
MALME-3M melanoma = tested on: MALME-3M melanoma
RXF 393 renal = tested on: RXF 393 renal
SNB-75 CNS = tested on: SNB-75 CNS
KM20L2 colon = tested on: KM20L2 colon
A549 NSCLC = tested on: A549 NSCLC
A498 renal = tested on: A498 renal
SK-MEL-2 melanoma = tested on: SK-MEL-2 melanoma
DMS 273 small cell lung = tested on: DMS 273 small cell lung
OVCAR-5 ovarian = tested on: OVCAR-5 ovarian
SNB-78 CNS = tested on: SNB-78 CNS
CCRF-CEM leukemia = tested on: CCRF-CEM leukemia
U251 CNS = tested on: U251 CNS
EKVX NSCLC = tested on: EKVX NSCLC
SF-295 CNS = tested on: SF-295 CNS
ACHN renal = tested on: ACHN renal
SR leukemia = tested on: SR leukemia
TK-10 renal = tested on: TK-10 renal
786-0 renal = tested on: 786-0 renal
CAKI-1 renal = tested on: CAKI-1 renal
RXF-631 renal = tested on: RXF-631 renal
NCI-H226 lung = tested on: NCI-H226 lung
UO-31 renal = tested on: UO-31 renal
SK-OV-3 ovarian = tested on: SK-OV-3 ovarian
M14 melanoma = tested on: M14 melanoma
LXFL 529 NSCLC = tested on: LXFL 529 NSCLC
XF 498 CNS = tested on: XF 498 CNS

## NC1CCCCC1
OVCAR-4 ovarian
  TGI: > 562 µM
HOP-92 NSCLC
  TGI: > 562 µM
NCI-H522 lung
  TGI: > 562 µM
NCI-H460 lung
  TGI: > 562 µM
HL-60(TB) leukemia
  TGI: 380 µM
HCC-2998 colon
  TGI: > 562 µM
KM12 colon
  TGI: > 562 µM
SN12K1 renal
  TGI: > 562 µM
HT29 colon
  TGI: > 562 µM
SK-MEL-5 melanoma
  TGI: > 562 µM
M19-MEL melanoma
  TGI: > 562 µM
SNB-19 CNS
  TGI: > 562 µM
UACC-62 melanoma
  TGI: > 562 µM
HOP-18 NSCLC
  TGI: < 0.0562 µM
IGROV1 ovarian
  TGI: > 562 µM
SF-539 CNS
  TGI: 418 µM
COLO 205 colon
  TGI: > 56.2 µM
SK-MEL-28 melanoma
  TGI: > 562 µM
RPMI-8226 leukemia
  TGI: > 562 µM
P388 leukemia
  TGI: 243 µM
DLD-1 colon
  TGI: > 562 µM
SW-620 colon
  TGI: > 562 µM
K-562 leukemia
  TGI: > 562 µM
MOLT-4 leukemia
  TGI: > 562 µM
HCT-116 colon
  TGI: > 562 µM
SN12C renal
  TGI: > 562 µM
NCI/ADR-RES ovarian
  TGI: > 562 µM
OVCAR-8 ovarian
  TGI: > 562 µM
HOP-62 NSCLC
  TGI: > 562 µM
DMS 114 small cell lung
  TGI: > 56.2 µM
UACC-257 melanoma
  TGI: > 562 µM
OVCAR-3 ovarian
  TGI: > 562 µM
HCT-15 colon
  TGI: > 562 µM
NCI-H23 lung
  TGI: > 562 µM
MCF7 breast
  TGI: > 562 µM
SF-268 CNS
  TGI: > 562 µM
LOX IMVI melanoma
  TGI: > 562 µM
MALME-3M melanoma
  TGI: > 562 µM
RXF 393 renal
  TGI: > 562 µM
SNB-75 CNS
  TGI: > 562 µM
KM20L2 colon
  TGI: > 562 µM
A549 NSCLC
  TGI: > 562 µM
A498 renal
  TGI: > 562 µM
SK-MEL-2 melanoma
  TGI: > 562 µM
DMS 273 small cell lung
  TGI: > 562 µM
OVCAR-5 ovarian
  TGI: > 562 µM
SNB-78 CNS
  TGI: > 562 µM
CCRF-CEM leukemia
  TGI: > 562 µM
U251 CNS
  TGI: > 562 µM
EKVX NSCLC
  TGI: > 562 µM

## O=c1[nH]c2nc3ccccc3n2c(O)c1-c1ccccc1
OVCAR-4 ovarian
  TGI: > 100 µM
HOP-92 NSCLC
  TGI: > 100 µM
SF-295 CNS
  TGI: > 100 µM
NCI-H522 lung
  TGI: > 100 µM
NCI-H460 lung
  TGI: > 100 µM
ACHN renal
  TGI: > 100 µM
HL-60(TB) leukemia
  TGI: > 100 µM
HCC-2998 colon
  TGI: > 100 µM
KM12 colon
  TGI: > 100 µM
HT29 colon
  TGI: > 100 µM
SK-MEL-5 melanoma
  TGI: > 100 µM
M19-MEL melanoma
  TGI: > 100 µM
SNB-19 CNS
  TGI: > 100 µM
UACC-62 melanoma
  TGI: > 100 µM
HOP-18 NSCLC
  TGI: > 100 µM
IGROV1 ovarian
  TGI: > 100 µM
SF-539 CNS
  TGI: > 100 µM
COLO 205 colon
  TGI: > 100 µM
SK-MEL-28 melanoma
  TGI: > 100 µM
RPMI-8226 leukemia
  TGI: > 100 µM
DLD-1 colon
  TGI: > 100 µM
SW-620 colon
  TGI: > 100 µM
K-562 leukemia
  TGI: > 100 µM
MOLT-4 leukemia
  TGI: > 100 µM
HCT-116 colon
  TGI: > 100 µM
SR leukemia
  TGI: > 100 µM
TK-10 renal
  TGI: > 100 µM
SN12C renal
  TGI: > 100 µM
786-0 renal
  TGI: > 100 µM
CAKI-1 renal
  TGI: > 100 µM
OVCAR-8 ovarian
  TGI: > 100 µM
HOP-62 NSCLC
  TGI: > 100 µM
DMS 114 small cell lung
  TGI: > 100 µM
UACC-257 melanoma
  TGI: > 100 µM
OVCAR-3 ovarian
  TGI: > 100 µM
RXF-631 renal
  TGI: > 100 µM
NCI-H226 lung
  TGI: > 100 µM
HCT-15 colon
  TGI: > 100 µM
NCI-H23 lung
  TGI: > 100 µM
UO-31 renal
  TGI: > 100 µM
SK-OV-3 ovarian
  TGI: > 100 µM
SF-268 CNS
  TGI: > 100 µM
LOX IMVI melanoma
  TGI: > 100 µM
MALME-3M melanoma
  TGI: > 100 µM
M14 melanoma
  TGI: > 100 µM
RXF 393 renal
  TGI: > 100 µM
SNB-75 CNS
  TGI: > 100 µM
KM20L2 colon
  TGI: > 100 µM
A549 NSCLC
  TGI: > 100 µM
A498 renal
  TGI: > 100 µM
SK-MEL-2 melanoma
  TGI: > 100 µM
DMS 273 small cell lung
  TGI: > 100 µM
LXFL 529 NSCLC
  TGI: > 100 µM
OVCAR-5 ovarian
  TGI: > 100 µM
SNB-78 CNS
  TGI: > 100 µM
XF 498 CNS
  TGI: > 100 µM
CCRF-CEM leukemia
  TGI: > 100 µM
U251 CNS
  TGI: > 100 µM
EKVX NSCLC
  TGI: > 100 µM

## CCOC(=O)/C(ON)=C(/CC/C(C(=O)OC)=C(\ON)C(=O)OCC)C(=O)OC
OVCAR-4 ovarian
  TGI: > 100 µM
HOP-92 NSCLC
  TGI: > 100 µM
SF-295 CNS
  TGI: > 100 µM
NCI-H522 lung
  TGI: > 100 µM
NCI-H460 lung
  TGI: > 100 µM
ACHN renal
  TGI: > 100 µM
HL-60(TB) leukemia
  TGI: > 100 µM
HCC-2998 colon
  TGI: > 100 µM
KM12 colon
  TGI: > 100 µM
HT29 colon
  TGI: > 100 µM
SK-MEL-5 melanoma
  TGI: > 100 µM
M19-MEL melanoma
  TGI: > 100 µM
SNB-19 CNS
  TGI: > 100 µM
UACC-62 melanoma
  TGI: > 100 µM
HOP-18 NSCLC
  TGI: > 100 µM
IGROV1 ovarian
  TGI: > 100 µM
SF-539 CNS
  TGI: > 100 µM
COLO 205 colon
  TGI: > 100 µM
SK-MEL-28 melanoma
  TGI: > 100 µM
RPMI-8226 leukemia
  TGI: > 100 µM
DLD-1 colon
  TGI: > 100 µM
SW-620 colon
  TGI: > 100 µM
K-562 leukemia
  TGI: > 100 µM
MOLT-4 leukemia
  TGI: > 100 µM
HCT-116 colon
  TGI: > 100 µM
SR leukemia
  TGI: > 100 µM
TK-10 renal
  TGI: > 100 µM
SN12C renal
  TGI: > 100 µM
786-0 renal
  TGI: > 100 µM
CAKI-1 renal
  TGI: > 100 µM
OVCAR-8 ovarian
  TGI: > 100 µM
HOP-62 NSCLC
  TGI: > 100 µM
DMS 114 small cell lung
  TGI: > 100 µM
UACC-257 melanoma
  TGI: > 100 µM
OVCAR-3 ovarian
  TGI: > 100 µM
RXF-631 renal
  TGI: > 100 µM
NCI-H226 lung
  TGI: > 100 µM
HCT-15 colon
  TGI: > 100 µM
NCI-H23 lung
  TGI: > 100 µM
UO-31 renal
  TGI: > 100 µM
SK-OV-3 ovarian
  TGI: > 100 µM
SF-268 CNS
  TGI: > 100 µM
LOX IMVI melanoma
  TGI: > 100 µM
MALME-3M melanoma
  TGI: > 100 µM
M14 melanoma
  TGI: > 100 µM
RXF 393 renal
  TGI: > 100 µM
SNB-75 CNS
  TGI: > 100 µM
KM20L2 colon
  TGI: > 100 µM
A549 NSCLC
  TGI: > 100 µM
A498 renal
  TGI: > 100 µM
SK-MEL-2 melanoma
  TGI: > 100 µM
DMS 273 small cell lung
  TGI: > 100 µM
LXFL 529 NSCLC
  TGI: > 100 µM
OVCAR-5 ovarian
  TGI: > 100 µM
SNB-78 CNS
  TGI: > 100 µM
XF 498 CNS
  TGI: > 100 µM
CCRF-CEM leukemia
  TGI: > 100 µM
U251 CNS
  TGI: > 100 µM
EKVX NSCLC
  TGI: > 100 µM
